Results on 3 molecules are retold here after PubChem BioAssay (NCI).

Test systems include HS 578T breast; IGROV1 ovarian; LOX IMVI melanoma; MDA-MB-435; SF-268 CNS; SN12C renal; SNB-19 CNS; SR leukemia; T-47D breast; UACC-62 melanoma.
Holding throughout (experiment): inhibition of tumour cell growth, NCI panel, 48 h

SMILES strings stand for the structures.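 Where inhibition never reached the appropriate level, the endpoint shown equals the highest concentration tested. Otherwise, values were interpolated linearly from a five-concentration, 48-hour dose response in 96-well plates. At the GI50, growth is halved. TGI denotes the concentration required for complete inhibition of growth.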

As to `COc1cc2c3c(n(CCCCN)c(=O)c2cc1OC)-c1cc2c(cc1C3=O)OCO2`, the GI50 is 4.6 µM in the experiment with HS 578T breast; 1140 nM in the experiment on IGROV1 ovarian; 107 nM in the experiment with LOX IMVI melanoma; 2.29 µM in the experiment on MDA-MB-435; 801 nM in the experiment with SF-268 CNS; 58.3 nM in the experiment with SN12C renal. The GI50 in the experiment on SNB-19 CNS is 464 nM; in the experiment with SR leukemia it was 115 nM; in the experiment on T-47D breast, 1.22 µM; in the experiment with UACC-62 melanoma, 216 nM. The TGI in the experiment on HS 578T breast was found to be 11.8 µM; in the experiment on IGROV1 ovarian it was 5.08 µM; in the experiment with LOX IMVI melanoma it was 0.529 µM; in the experiment on MDA-MB-435, 7.32 µM; in the experiment with SF-268 CNS, 5.55 µM; with SN12C renal, 0.235 µM. Besides, the TGI was determined as 6.75 µM in the experiment on SNB-19 CNS, 0.417 µM in the experiment with SR leukemia, 10.3 µM in the experiment on T-47D breast and 1.04 µM in the experiment on UACC-62 melanoma.
Regarding `CCC1CN2C(=N1)c1ccccc1-c1cc(Cl)ccc12` (stereo not given), the GI50 with HS 578T breast is 6.58 µM; with IGROV1 ovarian, 2290 nM; in the experiment with LOX IMVI melanoma, 1810 nM; in the experiment on MDA-MB-435, 4.39 µM; in the experiment on SF-268 CNS, 2960 nM; in the experiment with SN12C renal, 2970 nM. The GI50 in the experiment with SNB-19 CNS was 5850 nM; with SR leukemia, 1510 nM; in the experiment with T-47D breast, 3.52 µM; with UACC-62 melanoma, 1760 nM. Moreover, the TGI was 34.5 µM in the experiment with HS 578T breast; 15.1 µM with IGROV1 ovarian; 4.44 µM with LOX IMVI melanoma; 16.2 µM in the experiment with MDA-MB-435; 11.6 µM in the experiment with SF-268 CNS; 17.4 µM in the experiment on SN12C renal. Moreover, the TGI in the experiment on SNB-19 CNS was found to be 30.5 µM; in the experiment with SR leukemia, 4.53 µM; in the experiment with T-47D breast, 23 µM; in the experiment with UACC-62 melanoma, 5.17 µM.
Take `CCn1cnc(C[C@H](NC(=O)[C@@H](NC(=O)Nc2cc(C(F)(F)F)cc(C(F)(F)F)c2)C(C)C)C(=O)OC)c1`: the GI50 in the experiment with HS 578T breast is 2.18 µM; in the experiment with IGROV1 ovarian, 2330 nM; with LOX IMVI melanoma it was 2500 nM; with MDA-MB-435, 3.17 µM; in the experiment on SF-268 CNS, 1760 nM; with SN12C renal it was 1730 nM. Moreover, the GI50 was 1610 nM in the experiment with SNB-19 CNS, 2380 nM in the experiment on SR leukemia, 3.66 µM in the experiment on T-47D breast and 6450 nM in the experiment with UACC-62 melanoma. The TGI is 6.11 µM in the experiment on HS 578T breast; 5.75 µM with IGROV1 ovarian; 7.43 µM with LOX IMVI melanoma; greater than 10 µM with MDA-MB-435; 3.4 µM with SF-268 CNS; 3.57 µM with SN12C renal. In addition, the TGI in the experiment on SNB-19 CNS was 3.19 µM; with SR leukemia, 7.86 µM; in the experiment on T-47D breast it was greater than 10 µM; with UACC-62 melanoma it was greater than 10 µM.
